Assay results published in patent US6224850A, “Antiwrinkle cosmetic/pharmaceutical compositions comprising iridaceae extracts” (Societe L'Oreal S.A., priority 1996, dated 2001).

Columns and labels:
[1] = test system: convulsions induced by strychnine in mice; details: mouse, in vivo
[2] = target: Glycine receptor (Rattus norvegicus, UniProt P07727); assay: biochemical; type: binding
[3] = target: GABA-A receptor; type: binding, rat; details: dose displacing 50% of tritiated muscimol; nonlabelled muscimol

Sequence of Glycine receptor (P07727 29-457): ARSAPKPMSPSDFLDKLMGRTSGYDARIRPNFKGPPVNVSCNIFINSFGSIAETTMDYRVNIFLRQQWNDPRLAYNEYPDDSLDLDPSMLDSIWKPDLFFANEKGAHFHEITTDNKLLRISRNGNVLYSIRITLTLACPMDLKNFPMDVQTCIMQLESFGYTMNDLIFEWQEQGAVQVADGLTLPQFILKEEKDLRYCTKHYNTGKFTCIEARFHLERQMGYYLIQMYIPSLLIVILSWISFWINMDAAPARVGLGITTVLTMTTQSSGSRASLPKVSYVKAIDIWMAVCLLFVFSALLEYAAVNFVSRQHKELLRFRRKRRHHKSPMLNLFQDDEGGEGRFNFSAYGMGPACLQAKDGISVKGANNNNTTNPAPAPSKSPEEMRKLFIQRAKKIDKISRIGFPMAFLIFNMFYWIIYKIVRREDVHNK
Sequence of Glycine receptor (P20781 23-496, further chain): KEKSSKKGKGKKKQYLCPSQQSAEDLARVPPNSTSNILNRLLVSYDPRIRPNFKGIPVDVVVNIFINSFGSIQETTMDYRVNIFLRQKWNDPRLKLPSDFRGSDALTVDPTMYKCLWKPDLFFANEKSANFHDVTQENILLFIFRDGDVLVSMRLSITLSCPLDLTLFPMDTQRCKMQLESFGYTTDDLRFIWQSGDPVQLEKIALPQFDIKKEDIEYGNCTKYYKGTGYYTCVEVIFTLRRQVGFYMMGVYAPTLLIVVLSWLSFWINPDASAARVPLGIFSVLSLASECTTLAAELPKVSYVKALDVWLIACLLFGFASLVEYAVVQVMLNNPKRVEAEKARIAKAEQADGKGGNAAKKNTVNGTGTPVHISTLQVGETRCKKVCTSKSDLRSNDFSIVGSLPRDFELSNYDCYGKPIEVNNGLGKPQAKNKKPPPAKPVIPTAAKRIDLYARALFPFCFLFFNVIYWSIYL

CN1C(=O)CN=C(c2ccccc2)c2cc(Cl)ccc21 [Diazepam]
Delay in the appearance of the convulsions [1]: 3431 | Variation (%) of delay [1]: +1190

O=C1C[C@@H]2OCC=C3CN4CC[C@]56c7ccccc7N1[C@H]5[C@H]2[C@H]3C[C@H]46 [strychnine]
IC50 [2]: 0.0269 µM

NCc1cc(=O)[nH]o1 [muscimol]
IC50 [3]: 0.0082 µM
